Measured values as given in ChEMBL document CHEMBL1127253, “Synthesis and in vitro gastrointestinal motility enhancing activity of 3-aryl-2-imidazolidinylidene propanedinitrile derivatives” (Bioorg Med Chem Lett, 1994).

Tests used:
Cavia porcellus = species: Cavia porcellus; assay: In vitro gastrointestinal motility enhancing activity expressed as concentration of compound producing 30% potentiation of contractions induced by electrical stimulation in guinea pig; assay type: functional
Acetylcholinesterase = target: T1, Acetylcholinesterase (Rattus norvegicus, UniProt P37136); assay: Inhibitory activity against acetylcholinesterase (AChE) from rat brain was determined
T1 sequence (P37136 whole entry): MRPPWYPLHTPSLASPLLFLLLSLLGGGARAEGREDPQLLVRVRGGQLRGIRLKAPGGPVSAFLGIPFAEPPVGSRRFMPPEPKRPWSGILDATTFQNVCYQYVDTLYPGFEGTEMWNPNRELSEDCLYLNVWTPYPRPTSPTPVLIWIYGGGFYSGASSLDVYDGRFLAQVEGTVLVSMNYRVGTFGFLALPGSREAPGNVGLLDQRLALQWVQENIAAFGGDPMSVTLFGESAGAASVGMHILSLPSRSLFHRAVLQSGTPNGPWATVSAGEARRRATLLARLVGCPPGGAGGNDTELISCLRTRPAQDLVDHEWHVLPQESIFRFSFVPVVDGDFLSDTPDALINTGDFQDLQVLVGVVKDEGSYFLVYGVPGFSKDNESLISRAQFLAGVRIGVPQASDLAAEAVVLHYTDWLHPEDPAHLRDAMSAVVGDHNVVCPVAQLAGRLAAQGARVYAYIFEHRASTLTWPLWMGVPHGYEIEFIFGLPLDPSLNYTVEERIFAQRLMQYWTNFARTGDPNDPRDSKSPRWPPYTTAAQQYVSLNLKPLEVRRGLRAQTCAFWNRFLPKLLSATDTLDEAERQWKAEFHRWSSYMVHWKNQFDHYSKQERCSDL

Structure (SMILES)	EC30 (Cavia porcellus) [µM]	IC50 (Acetylcholinesterase) [µM]
Cc1ccc(N2CCN(CCNCc3ccc(CN4CCCCC4)o3)C2=C(C#N)C#N)cc1	0.052	0.0022
N#CC(C#N)=C1NCCN1CCNCc1ccc(CN2CCCCC2)o1	0.016	0.03
COc1ccc(N2CCN(CCNCc3ccc(CN4CCCCC4)o3)C2=C(C#N)C#N)cc1	0.012	0.019
N#CC(C#N)=C1N(CCNCc2ccc(CN3CCCCC3)o2)CCN1c1ccccc1	0.01	0.014
COc1ccccc1N1CCN(CCNCc2ccc(CN3CCCCC3)o2)C1=C(C#N)C#N	0.49	0.066
COc1cccc(N2CCN(CCNCc3ccc(CN4CCCCC4)o3)C2=C(C#N)C#N)c1	0.014	0.014
Cc1cccc(N2CCN(CCNCc3ccc(CN4CCCCC4)o3)C2=C(C#N)C#N)c1	0.019	0.013
